In brackets after ≈: the same amount, converted by molar mass. Where two headings read alike, the source gives them in different places. Where no end group is shown, it is not given here.
Columns and labels:
[1] = tested on: S. aureus strain Smith diffuse; assay: Rat central venous catheter (CVC)-associated infection model, lock technique; conditions: day seven; for Quantitative blood culture / Quantitative catheters/venous tissues culture: mean ± S.D.; for Antimicrobial activity in quantitative peripheral blood cultures (in words): at concentration of MBC for adherent cells, compared with untreated control
[2] = tested on: S. aureus strain Smith diffuse (SD) biofilm; assay: Adherent biofilm formation (crystal violet, OD 570 nm); format: cell-based; conditions: with addition of RIP into each well; data not shown
Protocol: (§1) Organisms: The inventors chose the S. aureus strain Smith diffuse (SD).
Adherent biofilm formation for susceptibility testing: To develop a biofilm, 50 μL of Triptic Soy broth (“TSB”) containing 10^6 CFU/mL of bacteria was added under aseptic conditions to each well of a tissue culture-treated polystyrene 96-well plate containing 150 μL of TSB-2% glucose. […] To evaluate the formation of adherent biofilm, the remaining attached bacteria were fixed with 0.2 mL of 99% methanol per well, and after 15 min, plates were emptied and left to dry. […] Stepanovic et al., J Microbiol Methods 40:175-179 (2000); and Christensen et al., J Clin Microbiol 22:996-1006 (1985). The plates were air dried. The dye bound to the adherent cells was solubilized with 0.2 mL of 33% (v/v) glacial acetic acid per well.

[3] = tested on: S. aureus strain Smith diffuse (SD), adherent organisms
[4] = tested on: S. aureus strain Smith diffuse (SD), planktonic organisms; assay: Susceptibility testing by classical method (microbroth dilution, MIC/MBC, planktonic organisms); format: cell-based; conditions: 10 μg of RIP pre-treatment (in 10 μL MH broth/well), 30 minutes
Excerpt: as §1
National Committee for Clinical Laboratory Standards, Fifth Edition, Approved Standard M7-A5, Wayne, Pa. (2001).

[5] = tested on: S. aureus strain Smith diffuse (SD), adherent organisms; assay: microbe, parasite or virus in culture; conditions: Staphylococcus aureus
[6] = antibiotic lock 1,024 μg/ml, 1 hour dwell
[7] = 10 μg of RIP pre-treatment (in 10 μL MH broth/well), 30 minutes
[8] = read-out: MBC, adherent organisms, 10 μg of RIP pre-treatment (in 10 μL MH broth/well), 30 minutes
[9] = read-out: MBC, adherent organisms, without RIP pre-treatment
[10] = read-out: MIC, adherent organisms, 10 μg of RIP pre-treatment (in 10 μL MH broth/well), 30 minutes
[11] = read-out: MIC, adherent organisms, without RIP pre-treatment
[12] = antibiotic lock 8.00 μg/ml (MBC for adherent cells), 1 hour dwell

| Molecule | Quantitative blood culture [1, 6] | Quantitative catheters/venous tissues culture [1, 6] | Antimicrobial activity in quantitative peripheral blood cultures (in words) [1] | Quantitative blood culture ([1]; RIP-impregnated CVC alone) | Quantitative catheters/venous tissues culture ([1]; RIP-impregnated CVC alone) | Slime production (photometrical method) [2] | MIC, adherent organisms [3, 7] | MIC, adherent organisms ([3]; without RIP pre-treatment) | MBC, planktonic organisms [4] | MIC, planktonic organisms [4] | MBC [5, 8] | MBC [5, 9] | MIC [5, 10] | MIC [5, 11] | Quantitative blood culture [1, 12] | Quantitative catheters/venous tissues culture [1, 12] |
| --- | --- | --- | --- | --- | --- | --- | --- | --- | --- | --- | --- | --- | --- | --- | --- | --- |
| O=C(O)c1cn(C2CC2)c2cc(N3CCNCC3)c(F)cc2c1=O [Ciprofloxacin, ciprofloxacin] | 6.6 × 10^1 ± 1.4 × 10^1bc CFU/ml | 7.4 × 10^5 ± 2.1 × 10^5bc CFU/ml | weak antimicrobial activity |  |  |  |  |  |  |  |  |  |  |  |  |  |
| YSPWTNF-NH2 [RIP, YSPWTNF-NH2] |  |  |  | 3.4 × 10^1 ± 0.8 × 10^1b CFU/ml | 1.4 × 10^3 ± 0.3 × 10^3b CFU/ml | much lower |  |  |  |  |  |  |  |  |  |  |
| CN[C@H](CC(C)C)C(=O)N[C@H]1C(=O)N[C@@H](CC(N)=O)C(=O)N[C@H]2C(=O)N[C@H]3C(=O)N[C@H](C(=O)N[C@H](C(=O)O)c4cc(O)cc(O)c4-c4cc3ccc4O)[C@H](O)c3ccc(c(Cl)c3)Oc3cc2cc(c3O[C@@H]2O[C@H](CO)[C@@H](O)[C@H](O)[C@H]2O[C@H]2C[C@](C)(N)[C@H](O)[C@H](C)O2)Oc2ccc(cc2Cl)[C@H]1O [Vancomycin] | 5.3 × 10^1 ± 1.1 × 10^1bc CFU/ml | 5.4 × 10^5 ± 1.6 × 10^5bc CFU/ml | weak antimicrobial activity |  |  |  | 1.00 µg/mL (≈ 0.69 µM) | 2.00 µg/mL (≈ 1.38 µM) | 2.00 µg/mL (≈ 1.38 µM) | 1.00 µg/mL (≈ 0.69 µM) | 2 µg/mL (≈ 1.38 µM) | 16 µg/mL (≈ 11 µM) | 1 µg/mL (≈ 0.69 µM) | 2 µg/mL (≈ 1.38 µM) |  |  |
| C[C@@H](O)[C@H]1C(=O)N2C(C(=O)O)=C(SCCN=CN)C[C@H]12 [Imipenem, imipenem] | 5.7 × 10^1 ± 1.2 × 10^1bc CFU/ml | 6.0 × 10^5 ± 1.9 × 10^5bc CFU/ml |  |  |  |  | 0.50 µg/mL (≈ 1.67 µM) | 1.00 µg/mL (≈ 3.34 µM) | 1.00 µg/mL (≈ 3.34 µM) | 0.50 µg/mL (≈ 1.67 µM) | 2 µg/mL (≈ 6.68 µM) | 8 µg/mL (≈ 26.7 µM) | 0.5 µg/mL (≈ 1.67 µM) | 1 µg/mL (≈ 3.34 µM) | 5.8 × 10^3 ± 1.2 × 10^3 CFU/ml | 6.9 × 10^6 ± 2.1 × 10^6 CFU/ml |

Reference: patent US20070009566A1, “Method and apparatus for treating bacterial infections in devices” (priority 2005, published 2007)
